Literature values in patent US20110124713A1, “SAM-II RIBOSWITCH AND USES THEREOF” (The Regents of the University of Colorado, A body Corporate, priority 2007, published 2011).

Tested on: SAM-II riboswitch
Settings: absence vs presence of SAM; nucleotides G8-U12 in L1

C[S+](CC[C@H](N)C(=O)O)C[C@H]1O[C@@H](n2cnc3c(N)ncnc32)[C@H](O)[C@@H]1O (stereo partly shown) [SAM, S-adenosylmethionine]
ligand-dependent protections in in-line probing: strong ligand-dependent protections
